Test results as given in ChEMBL document CHEMBL4610064, “DNA-Encoded Library Screening as Core Platform Technology in Drug Discovery: Its Synthetic Method Development and Applications in DEL Synthesis” (J Med Chem, 2020).
≈ marks a conversion by molar mass, not a printed value.

What was measured:
[1] = biological target: Substance-P receptor (Homo sapiens) (UniProt P25103); assay: Antagonist activity at NK1 (unknown origin)
[2] = biological target: T1, Neuromedin-K receptor (Homo sapiens) (UniProt P29371); assay: Antagonist activity at NK3 (unknown origin)
T1 sequence (whole entry): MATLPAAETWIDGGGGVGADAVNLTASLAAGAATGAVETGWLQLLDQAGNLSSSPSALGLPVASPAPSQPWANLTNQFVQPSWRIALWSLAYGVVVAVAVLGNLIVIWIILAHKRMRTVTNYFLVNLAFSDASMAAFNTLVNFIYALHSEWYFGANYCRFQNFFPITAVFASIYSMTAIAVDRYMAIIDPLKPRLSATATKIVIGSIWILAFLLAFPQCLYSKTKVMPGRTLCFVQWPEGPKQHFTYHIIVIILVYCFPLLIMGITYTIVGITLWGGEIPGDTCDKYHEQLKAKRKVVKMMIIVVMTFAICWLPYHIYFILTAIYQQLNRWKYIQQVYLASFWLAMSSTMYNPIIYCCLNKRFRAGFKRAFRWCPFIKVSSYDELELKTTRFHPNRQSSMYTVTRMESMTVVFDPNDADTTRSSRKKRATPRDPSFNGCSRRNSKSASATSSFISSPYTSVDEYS

[3] = biological target: T2, Substance-K receptor (Homo sapiens) (UniProt P21452); assay: Antagonist activity at NK2 (unknown origin)
T2 sequence (whole entry): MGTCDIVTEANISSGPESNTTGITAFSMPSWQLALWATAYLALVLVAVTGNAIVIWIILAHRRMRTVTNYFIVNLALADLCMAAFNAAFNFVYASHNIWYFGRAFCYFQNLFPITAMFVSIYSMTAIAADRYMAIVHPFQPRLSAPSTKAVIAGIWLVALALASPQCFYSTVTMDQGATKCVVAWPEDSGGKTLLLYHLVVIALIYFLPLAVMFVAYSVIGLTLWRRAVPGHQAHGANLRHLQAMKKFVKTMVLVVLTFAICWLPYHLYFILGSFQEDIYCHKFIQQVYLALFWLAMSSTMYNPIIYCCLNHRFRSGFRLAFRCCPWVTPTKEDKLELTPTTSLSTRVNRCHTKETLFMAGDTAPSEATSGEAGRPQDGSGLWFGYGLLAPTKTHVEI

[4] = Aqueous solubility of the compound; assay type: physicochemical; conditions: water

Sequence of Substance-P receptor (Homo sapiens) (P25103 whole entry): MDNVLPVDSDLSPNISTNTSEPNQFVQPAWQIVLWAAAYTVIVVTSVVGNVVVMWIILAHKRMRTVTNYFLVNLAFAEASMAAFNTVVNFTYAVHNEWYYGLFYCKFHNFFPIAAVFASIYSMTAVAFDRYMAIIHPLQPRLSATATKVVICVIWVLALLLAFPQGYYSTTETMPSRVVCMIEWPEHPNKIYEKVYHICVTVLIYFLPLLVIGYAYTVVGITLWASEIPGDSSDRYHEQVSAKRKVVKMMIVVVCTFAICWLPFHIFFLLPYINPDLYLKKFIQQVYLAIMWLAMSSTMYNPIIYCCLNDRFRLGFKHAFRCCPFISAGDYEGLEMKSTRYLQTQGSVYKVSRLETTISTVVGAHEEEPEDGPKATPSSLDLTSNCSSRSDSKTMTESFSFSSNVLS

| SMILES | fKi [1] | fKi [2] | fKi [3] | solubility [4] |
| --- | --- | --- | --- | --- |
| CCn1c(-c2ccccc2-c2ccc(C)cc2C)nc2cc(C(=O)NC)ccc21 | > 1000 nM | 1.2 nM | > 1000 nM | – |
| O=C(CN1C(=O)C2(CCN(C(=O)c3ccc4[nH]ncc4n3)CC2)c2c(Br)cccc21)NCC(F)(F)F | – | – | – | 103 µg/mL (≈ 182 µM) |
| CNC(=O)CN1CN(c2ccccc2)C2(CCN(C(=O)c3ccc4[nH]ncc4c3)CC2)C1=O | – | – | – | 1.4 µg/mL (≈ 3.14 µM) |
| Cn1c(-c2c[nH]c3cc(C#N)ccc23)nc2cc(C(=O)N3CCOC(c4ccccc4)C3CO)ccc21 (stereo not drawn) | > 1000 nM | 1.2 nM | > 1000 nM | – |
